Key:
ErbB2 V777L = ErbB2 V777L (Homo sapiens (Human), UniProt P04626, V777L); assay: ErbB enzyme assay (CisBio HTRF-KinEASE-TK), ErbB2 V777L; assay type: biochemical
Procedure, shortened: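 HTRF KinEASE-TK tyrosine-kinase read-out of substrate phosphorylation after a final 1 h at ambient temperature, from the 655/620 nm emission ratio.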

EGFR WT = EGFR WT (Homo sapiens (Human), UniProt P00533); assay: ErbB enzyme assay (CisBio HTRF-KinEASE-TK), EGFR WT; assay type: biochemical; conditions: ATP at Km (25 μM), 1 h incubation
Chain of EGFR WT (P00533 25-1210): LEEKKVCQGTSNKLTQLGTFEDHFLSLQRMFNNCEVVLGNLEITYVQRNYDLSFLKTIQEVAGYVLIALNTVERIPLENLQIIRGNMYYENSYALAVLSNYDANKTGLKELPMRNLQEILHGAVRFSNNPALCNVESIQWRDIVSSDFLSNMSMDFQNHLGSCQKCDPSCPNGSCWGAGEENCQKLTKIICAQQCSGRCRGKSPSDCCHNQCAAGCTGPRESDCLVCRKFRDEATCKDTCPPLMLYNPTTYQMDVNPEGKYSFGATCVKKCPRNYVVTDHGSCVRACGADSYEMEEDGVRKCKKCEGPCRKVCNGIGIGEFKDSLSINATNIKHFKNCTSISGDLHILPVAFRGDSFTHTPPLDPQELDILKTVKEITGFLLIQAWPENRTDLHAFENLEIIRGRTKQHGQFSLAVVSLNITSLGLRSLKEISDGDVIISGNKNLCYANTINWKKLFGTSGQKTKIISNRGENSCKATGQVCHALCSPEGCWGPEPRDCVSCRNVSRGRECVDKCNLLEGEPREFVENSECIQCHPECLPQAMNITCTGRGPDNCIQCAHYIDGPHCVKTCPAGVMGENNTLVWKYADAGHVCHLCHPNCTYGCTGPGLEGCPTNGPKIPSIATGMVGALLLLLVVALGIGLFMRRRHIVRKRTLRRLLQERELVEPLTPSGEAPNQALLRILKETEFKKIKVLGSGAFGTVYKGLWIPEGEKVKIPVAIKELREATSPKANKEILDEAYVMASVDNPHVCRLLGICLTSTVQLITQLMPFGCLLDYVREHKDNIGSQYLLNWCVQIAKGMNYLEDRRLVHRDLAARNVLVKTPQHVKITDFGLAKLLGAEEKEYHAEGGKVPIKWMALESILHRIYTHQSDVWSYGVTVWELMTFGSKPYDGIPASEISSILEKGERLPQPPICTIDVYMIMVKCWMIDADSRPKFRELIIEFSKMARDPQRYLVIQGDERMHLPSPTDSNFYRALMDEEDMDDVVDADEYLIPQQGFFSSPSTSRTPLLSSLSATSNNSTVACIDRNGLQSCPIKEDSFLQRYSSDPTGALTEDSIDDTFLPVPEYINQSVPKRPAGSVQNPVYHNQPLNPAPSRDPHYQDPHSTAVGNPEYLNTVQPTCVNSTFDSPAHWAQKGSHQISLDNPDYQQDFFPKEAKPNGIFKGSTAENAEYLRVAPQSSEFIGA
Procedure, shortened: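 Tyrosine kinase HTRF, 1 h RT reaction → quench (Sa-XL665/TK-Ab-Cryptate) → 1 h RT → 655/620 ratio.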

Chain of ErbB2 V777L (P04626 23-1255 V777L): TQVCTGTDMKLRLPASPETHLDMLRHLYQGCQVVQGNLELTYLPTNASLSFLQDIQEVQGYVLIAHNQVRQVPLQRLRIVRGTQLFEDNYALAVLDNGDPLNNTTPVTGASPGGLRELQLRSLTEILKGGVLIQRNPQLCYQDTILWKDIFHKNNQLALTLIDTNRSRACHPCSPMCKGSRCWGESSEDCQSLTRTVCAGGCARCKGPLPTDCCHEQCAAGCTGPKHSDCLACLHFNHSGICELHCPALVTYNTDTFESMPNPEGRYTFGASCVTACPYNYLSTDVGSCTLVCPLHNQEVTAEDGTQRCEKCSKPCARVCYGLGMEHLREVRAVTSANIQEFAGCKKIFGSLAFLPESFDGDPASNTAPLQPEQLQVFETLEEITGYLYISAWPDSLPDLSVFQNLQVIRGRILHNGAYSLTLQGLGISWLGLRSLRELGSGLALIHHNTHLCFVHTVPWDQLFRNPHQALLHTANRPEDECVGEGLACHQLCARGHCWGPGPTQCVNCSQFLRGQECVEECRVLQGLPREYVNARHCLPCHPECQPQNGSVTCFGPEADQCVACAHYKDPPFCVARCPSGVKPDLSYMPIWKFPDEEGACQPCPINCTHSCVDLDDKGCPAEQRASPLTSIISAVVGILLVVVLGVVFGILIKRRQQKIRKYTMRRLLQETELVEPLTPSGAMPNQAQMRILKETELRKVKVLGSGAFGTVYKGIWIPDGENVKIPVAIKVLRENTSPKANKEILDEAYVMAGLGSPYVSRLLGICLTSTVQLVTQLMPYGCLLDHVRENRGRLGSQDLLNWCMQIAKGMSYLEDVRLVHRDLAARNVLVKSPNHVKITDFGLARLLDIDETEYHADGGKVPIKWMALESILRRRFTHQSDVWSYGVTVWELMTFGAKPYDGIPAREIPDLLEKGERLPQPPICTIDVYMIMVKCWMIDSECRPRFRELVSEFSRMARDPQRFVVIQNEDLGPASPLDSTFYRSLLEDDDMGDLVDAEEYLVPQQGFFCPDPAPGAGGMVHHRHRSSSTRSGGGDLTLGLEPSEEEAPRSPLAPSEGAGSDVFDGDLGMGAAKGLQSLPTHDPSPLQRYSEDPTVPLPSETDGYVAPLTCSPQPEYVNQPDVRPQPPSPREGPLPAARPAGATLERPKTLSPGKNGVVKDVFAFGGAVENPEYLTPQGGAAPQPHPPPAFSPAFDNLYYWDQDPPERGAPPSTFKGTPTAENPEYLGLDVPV

Row | SMILES | IC50 (ErbB2 V777L) | IC50 (EGFR WT)
1 | C=CC(=O)N[C@H]1CCCN(c2ccc3ncnc(Nc4ccc(Oc5ccc6c(c5)nnn6C)c(C)c4F)c3n2)[C@@H]1C (single isomer, unassigned) [Compound 348] | 100 to 500 nM | 50 to 100 nM
2 | C=CC(=O)N1CCCN(c2ccc3ncnc(Nc4ccc(Oc5ccc6c(c5)nnn6C)c(C)c4)c3n2)C[C@@H]1C [Compound 284, (S)-1-(2-methyl-4-(4-((3-methyl-4-((1-methyl-1H-benzo[d][1,2,3]triazol-5-yl)oxy)phenyl)amino)pyrido[3,2-d]pyrimidin-6-yl)-1,4-diazepan-1-yl)prop-2-en-1-one] | 500 to 1000 nM | ≥ 1000 nM
3 | C=CC(=O)N1CCN(c2ncc3ncnc(Nc4ccc(Oc5ccc6c(c5)nnn6C)c(C)c4F)c3n2)C2CC21 (stereo not shown) [Compound 48, 1-(5-(8-((2-fluoro-3-methyl-4-((1-methyl-1H-benzo[d][1,2,3]triazol-5-yl)oxy)phenyl)amino)pyrimido[5,4-d]pyrimidin-2-yl)-2,5-diazabicyclo[4.1.0]heptan-2-yl)prop-2-en-1-one] | < 50 nM | < 50 nM
4 | C=CC(=O)N1CCN(c2ccc3ncnc(Nc4cc(C)c(Oc5ccc6c(c5)ncn6C(F)F)cc4OC)c3n2)C[C@H]1C [Compound 307, (R)-1-(4-(4-((4-((1-(difluoromethyl)-1H-benzo[d]imidazol-5-yl)oxy)-2-methoxy-5-methylphenyl)amino)pyrido[3,2-d]pyrimidin-6-yl)-2-methylpiperazin-1-yl)prop-2-en-1-one] | 100 to 500 nM | 100 to 500 nM
5 | C=CC(=O)N1CC(F)(F)C12CN(c1ncc3ncnc(Nc4ccc(Oc5ccc6c(c5)nnn6C)c(C)c4)c3n1)C2 [Compound 221, 1-(3,3-difluoro-6-(8-((3-methyl-4-((1-methyl-1H-benzo[d][1,2,3]triazol-5-yl)oxy)phenyl)amino)pyrimido[5,4-d]pyrimidin-2-yl)-1,6-diazaspiro[3.3]heptan-1-yl)prop-2-en-1-one] | 50 to 100 nM | < 50 nM
6 | C=C(COC)C(=O)N1CC(F)(F)C12CN(c1ncc3ncnc(Nc4ccc(Oc5ccc6c(c5)nnn6C)c(C)c4)c3n1)C2 [Compound 214, 1-(3,3-difluoro-6-(8-((3-methyl-4-((1-methyl-1H-benzo[d][1,2,3]triazol-5-yl)oxy)phenyl)amino)pyrimido [5,4-d]pyrimidin-2-yl)-1,6-diazaspiro[3.3]heptan-1-yl)-2-(methoxymethyl) prop-2-en-1-one] | 100 to 500 nM | 500 to 1000 nM
7 | C=CC(=O)N[C@H]1CN(c2ccc3ncnc(Nc4ccc(Oc5ccc6c(c5)nnn6C)c(C)c4)c3n2)CC(F)(F)C1 [Compound 342, (R)-N-(5,5-difluoro-1-(4-((3-methyl-4-((1-methyl-1H-benzo[d][1,2,3]triazol-5-yl)oxy)phenyl)amino)pyrido[3,2-d]pyrimidin-6-yl)piperidin-3-yl)acrylamide] | 100 to 500 nM | 500 to 1000 nM
8 | C=CC(=O)N1CCN(c2ncc3ncnc(Nc4ccc(Oc5ccc6c(c5)nnn6C)c(C)c4C)c3n2)CC1 [Compound 65, 1-[4-[4-[2,3-dimethyl-4-(1-methylbenzotriazol-5-yl)oxy-anilino]pyrimido[5,4-d]pyrimidin-6-yl]piperazin-1-yl] prop-2-en-1-one] | 100 to 500 nM | 100 to 500 nM
9 | C=CC(=O)N1CCN(c2ccc3ncnc(Nc4ccc(Oc5ccc6c(c5)nnn6C)c(C)c4)c3c2F)CC1 [Compound 104, 1-(4-(5-fluoro-4-((3-methyl-4-((1-methyl-1H-benzo[d][1,2,3]triazol-5-yl)oxy)phenyl)amino)quinazolin-6-yl)piperazin-1-yl)prop-2-en-1-one] | 100 to 500 nM | 100 to 500 nM
10 | C=CC(=O)N(C)[C@H]1C[C@H](Oc2ncc3ncnc(Nc4ccc(Oc5cc(F)c6c(c5)ncn6C)c(C)c4)c3n2)C1 [Compound 386, N-((1r,3r)-3-((8-((4-((7-fluoro-1-methyl-1H-benzo[d]imidazol-5-yl)oxy)-3-methylphenyl)amino)pyrimido[5,4-d]pyrimidin-2-yl)oxy)cyclobutyl)-N-methylacrylamide] | 50 to 100 nM | 100 to 500 nM
11 | C=CC(=O)N(C)CCOc1ncc2ncnc(Nc3ccc(Oc4ccc5c(c4)ncn5C)c(C)c3)c2n1 [Compound 384, N-methyl-N-(2-((8-((3-methyl-4-((1-methyl-1H-benzo[d]imidazol-5-yl)oxy)phenyl)amino)pyrimido[5,4-d]pyrimidin-2-yl)oxy)ethyl)acrylamide] | 50 to 100 nM | ≥ 1000 nM
12 | C=CC(=O)N1CCN(c2ncc3ncnc(Nc4ccc(Oc5ccc6c(nnn6C)c5F)c(C)c4)c3n2)CC1 [Compound 191, 1-(4-(8-((4-((4-fluoro-1-methyl-1H-benzo[d][1,2,3]triazol-5-yl)oxy)-3-methylphenyl)amino)pyrimido[5,4-d]pyrimidin-2-yl)piperazin-1-yl)prop-2-en-1-one] | 50 to 100 nM | 50 to 100 nM
13 | Cc1c(Oc2ccc3c(c2)nnn3C)ccc(Nc2ncnc3cnc(N4CCN(C(=O)/C=C/CN5CC(F)C5)CC4)nc23)c1F [Compound 59, (E)-1-(4-(8-((2-fluoro-3-methyl-4-((1-methyl-1H-benzo[d][1,2,3]triazol-5-yl)oxy)phenyl)amino)pyrimido [5,4-d]pyrimidin-2-yl)piperazin-1-yl)-4-(3-fluoroazetidin-1-yl)but-2-en-1-one] | 100 to 500 nM | 100 to 500 nM

Next, values leading:

Row | IC50 (ErbB2 V777L) | IC50 (EGFR WT) | SMILES
14 | 50 to 100 nM | 100 to 500 nM | C=CC(=O)N1CCN(c2ncc3ncnc(Nc4ccc(Oc5ccc6c(c5)nnn6C)c(C)c4)c3n2)C[C@H]1C [Compound 1, (R)-1-(2-methyl-4-(8-((3-methyl-4-((1-methyl-1H-benzo[d][1,2,3]triazol-5-yl)oxy)phenyl)amino)pyrimido[5,4-d]pyrimidin-2-yl)piperazin-1-yl)prop-2-en-1-one]
15 | 100 to 500 nM | 100 to 500 nM | C=CC(=O)N1CCN(c2ccc3ncnc(Nc4cc(C)c(Oc5ccc6c(c5)nnn6C)cc4OC(F)(F)F)c3n2)C[C@H]1C [Compound 317, (R)-1-(2-methyl-4-(4-((5-methyl-4-((1-methyl-1H-benzo[d][1,2,3]triazol-5-yl)oxy)-2-(trifluoromethoxy)phenyl)amino)py-rido[3,2-d]pyrimidin-6-yl)piperazin-1-yl)prop-2-en-1-one]
16 | 100 to 500 nM | 100 to 500 nM | C=CC(=O)N1CCN(c2ncc3ncnc(Nc4ccc(Oc5ccc6c(c5)nnn6C)c(C)c4F)c3n2)CC1(C)C [Compound 32, 1-(4-(8-((2-fluoro-3-methyl-4-((1-methyl-1H-benzo[d][1,2,3]triazol-5-yl)oxy)phenyl)amino)pyrimido [5,4-d]pyrimidin-2-yl)-2,2-dimethylpiperazin-1-yl)prop-2-en-1-one]
17 | 100 to 500 nM | 100 to 500 nM | C=CC(=O)N1CC2CC(C1)N2c1ncc2ncnc(Nc3ccc(Oc4ccc5c(c4)nnn5C)c(C)c3)c2n1 [Compound 16, 1-(6-(8-((3-methyl-4-((1-methyl-1H-benzo[d][1,2,3]triazol-5-yl)oxy)phenyl)amino)pyrimido[5,4-d]pyrimidin-2-yl)-3,6-diazabicyclo[3.1.1]heptan-3-yl)prop-2-en-1-one]
18 | 500 to 1000 nM | 100 to 500 nM | C=CC(=O)N1CCN(c2ncc3ncnc(Nc4c(F)cc(Oc5ccc6c(c5)nnn6C)cc4F)c3n2)CC1 [Compound 20, 1-(4-(8-((2,6-difluoro-4-((1-methyl-1H-benzo[d][1,2,3]triazol-5-yl)oxy)phenyl)amino)pyrimido[5,4-d]pyrimidin-2-yl)piperazin-1-yl)prop-2-en-1-one]
19 | 500 to 1000 nM | ≥ 1000 nM | C=CC(=O)N[C@@H]1CCCN(c2ccc3ncnc(Nc4cc(C)c(Oc5ccc6c(c5)nnn6C)cc4OC)c3n2)C1 [Compound 274, (R)-N-(1-(4-((2-methoxy-5-methyl-4-((1-methyl-1H-benzo[d][1,2,3]triazol-5-yl)oxy)phenyl)amino)pyrido[3,2-d]pyrimidin-6-yl)piperidin-3-yl)acrylamide]
20 | 100 to 500 nM | 500 to 1000 nM | C=CC(=O)N1CC[C@H]2CN(c3ncc4ncnc(Nc5ccc(Oc6ccc7c(c6)nnn7C)c(C)c5)c4n3)C[C@H]21 [Compound 149, 1-((3aS,6aS)-5-(8-((3-methyl-4-((1-methyl-1H-benzo[d][1,2,3]triazol-5-yl)oxy)phenyl)amino)pyrimido [5,4-d]pyrimidin-2-yl)hexahydropyrrolo[3,4-b]pyrrol-1(2H)-y1)prop-2-en-1-one]
21 | 500 to 1000 nM | 500 to 1000 nM | C=CC(=O)N1CCN(c2ncc3ncnc(Nc4cc(C)c(Oc5cc(F)c6c(c5)nnn6C)cc4OC)c3n2)C[C@H]1C [Compound 164, (R)-1-(4-(8-((4-((7-fluoro-1-methyl-1H-benzo[d][1,2,3]triazol-5-yl)oxy)-2-methoxy-5-methylphenyl)amino)pyrimido[5,4-d]pyrimidin-2-y1)-2-methylpiperazin-1-yl)prop-2-en-1-one]
22 | 50 to 100 nM | ≥ 1000 nM | C=CC(=O)N(C)[C@H]1C[C@H](Oc2ncc3ncnc(Nc4ccc(Oc5ccc6c(c5)ncn6C)c(C)c4)c3n2)C1 [Compound 382, N-methyl-N-((1r,3r)-3-((8-((3-methyl-4-((1-methyl-1H-benzo[d]imidazol-5-yl)oxy)phenyl)amino)pyrimido[5,4-d]pyrimidin-2-yl)oxy)cyclobutyl)acrylamide]
23 | 50 to 100 nM | 100 to 500 nM | C=CC(=O)N1[C@@H]2COC[C@H]1CN(c1ncc3ncnc(Nc4ccc(Oc5ccc6c(c5)nnn6C)c(C)c4)c3n1)C2 [Compound 140, 1-((1R,5S)-7-(8-((3-methyl-4-((1-methyl-1H-benzo[d][1,2,3]triazol-5-yl)oxy)phenyl)amino)pyrimido [5,4-d]pyrimidin-2-yl)-3-oxa-7,9-diazabicyclo[3.3.1]nonan-9-yl)prop-2-en-1-one]

From patent US20250129078A1, “ERBB2 INHIBITORS” (Cogent Biosciences, Inc., priority 2023, published 2025)
